Where two headings read alike, the source gives them in different places.
Key:
[1] = tested on: CYP1A2, CYP2C9, CYP2C19, CYP2D6 and CYP3A4 (one value for the five species); assay: CYP inhibition test, five CYP species together (5CYPs_IC50; pooled human liver microsome); format: in vitro ADME
Description: O-de-ethylation of 7-ethoxyresorufin (CYP1A2), methyl-hydroxylation of tolbutamide (CYP2C9), 4′-hydroxylation of mephenyloin (CYP2C19), O-demethylation of dextromethorphan (CYP2D6), and hydroxylation of terfenadine (CYP3A4), which are typical substrate for metabolic reactions of human main CYP5 molecular species (CYP1A2, 2C9, 2C19, 2D6, and 3A4), were adopted as indexes.
The reaction conditions are as follows: substrate: 0.5 μmol/L of ethoxyresorufin (CYP1A2), 100 μmol/L of tolbutamide (CYP2C9), 50 μmol/L of S-mephenyloin (CYP2C19), 5 μmol/L of dextromethorphan (CYP2D6), and 1 μmol/L of terfenadine (CYP3A4); reaction time; 15 minutes; reaction temperature: 37° C.; enzyme: pooled human liver microsome 0.2 mg protein/mL; test drug concentration: 1, 5, 10, and 20 μmol/L (4 points).
In a 96-well plate, as a reaction solution, five kinds of substrates, a human liver microsome, and a test drug were added to 50 mmol/L Hepes buffer solution in the aforementioned ratio. A coenzyme NADPH was added to start a metabolic reaction, which is an index. After reacting at 37° C. for 15 minutes, a solution of methanol/acetonitrile (1/1 (v/v)) was added to quench the reaction. After centrifugation at 3000 rpm for 15 minutes, resorufin (CYP1A2 metabolite) in the supernatant was quantitated with a fluorescence multilabel counter, and hydroxylated tolbutamide (CYP2C9 metabolite), 4′-hydroxylated mephenyloin (CYP2C19 metabolite), […], terfenadine in alcohol form (CYP3A4 metabolite) were quantitated with LC/MS/MS.
The case wherein only DMSO (a solvent which dissolved a drug) was added to a reaction system was defined as a control (100%). When a test drug solution was added, the remaining activity (%) at each concentration was calculated, and then IC50 was calculated with a concentration and an inhibition ratio by an inverse estimation using a logistic model.

[2] = target: T1, CYP3A4 (Homo sapiens, UniProt P08684); assay: CYP3A4 fluorescence MBI test; format: in vitro ADME; conditions: difference in IC50 with 0 or 30 minutes pre-reaction; CYP3A4 expressed in E. coli, substrate 7-BFC
T1 construct: host or cells: E. coli
T1 sequence (P08684 whole entry): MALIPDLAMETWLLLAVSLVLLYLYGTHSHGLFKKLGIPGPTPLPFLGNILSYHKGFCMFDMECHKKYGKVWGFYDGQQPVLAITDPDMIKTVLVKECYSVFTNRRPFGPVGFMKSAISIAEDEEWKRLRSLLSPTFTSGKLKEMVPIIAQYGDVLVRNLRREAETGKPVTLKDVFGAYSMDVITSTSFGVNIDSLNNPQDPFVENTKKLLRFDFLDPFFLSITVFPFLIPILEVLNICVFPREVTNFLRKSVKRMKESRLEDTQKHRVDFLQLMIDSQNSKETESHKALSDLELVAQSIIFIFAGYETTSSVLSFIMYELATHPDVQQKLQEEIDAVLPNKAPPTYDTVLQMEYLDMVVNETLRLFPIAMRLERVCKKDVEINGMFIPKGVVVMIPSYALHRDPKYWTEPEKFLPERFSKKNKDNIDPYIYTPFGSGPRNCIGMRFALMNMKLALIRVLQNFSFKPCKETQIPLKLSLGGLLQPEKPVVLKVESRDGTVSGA
How it was run: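 E. coli-expressed CYP3A4 debenzylating 5.6 μmol/L 7-BFC to fluorescent 7-HFC (Ex 420/Em 535 nm) in K-Pi pH 7.4 at 25° C, 15 min reaction. NADPH pre-incubation of 0 or 30 min, with 10-fold dilution before reaction. IC50 from 0.625–20 μmol/L (6 points); (+) for an IC50 shift ≥5 μmol/L, (−) for ≤3 μmol/L.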

[3] = Metabolic stability test (pooled human liver microsome); format: in vitro ADME; conditions: percentage of test compound remained after 30 minutes, pooled human liver microsome 0.5 mg protein/mL, 1 mmol/L NADPH, 37° C., compound 0.5 μM
How it was run: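 Pooled human liver microsomes (0.5 mg protein/mL) incubated with compound and 1 mmol/L NADPH at 37° C. in pH 7.4 Tris buffer for 0 or 30 min. Parent quantified by LC/MS/MS after methanol/acetonitrile quench; value is % remaining at 30 min versus 0 min.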

[4] = target: PI3Kγ (Homo sapiens, UniProt P48736); assay: PI3Kγ inhibitory activity (PI3-kinase HTRF assay, inhibition ratio); format: biochemical; conditions: 0.5 h, compound at 10 μmol/L; read-out: PI3Kg Inhibition Ratio % (10 μM)
Chain of PI3Kγ (P48736 whole entry, species assumed): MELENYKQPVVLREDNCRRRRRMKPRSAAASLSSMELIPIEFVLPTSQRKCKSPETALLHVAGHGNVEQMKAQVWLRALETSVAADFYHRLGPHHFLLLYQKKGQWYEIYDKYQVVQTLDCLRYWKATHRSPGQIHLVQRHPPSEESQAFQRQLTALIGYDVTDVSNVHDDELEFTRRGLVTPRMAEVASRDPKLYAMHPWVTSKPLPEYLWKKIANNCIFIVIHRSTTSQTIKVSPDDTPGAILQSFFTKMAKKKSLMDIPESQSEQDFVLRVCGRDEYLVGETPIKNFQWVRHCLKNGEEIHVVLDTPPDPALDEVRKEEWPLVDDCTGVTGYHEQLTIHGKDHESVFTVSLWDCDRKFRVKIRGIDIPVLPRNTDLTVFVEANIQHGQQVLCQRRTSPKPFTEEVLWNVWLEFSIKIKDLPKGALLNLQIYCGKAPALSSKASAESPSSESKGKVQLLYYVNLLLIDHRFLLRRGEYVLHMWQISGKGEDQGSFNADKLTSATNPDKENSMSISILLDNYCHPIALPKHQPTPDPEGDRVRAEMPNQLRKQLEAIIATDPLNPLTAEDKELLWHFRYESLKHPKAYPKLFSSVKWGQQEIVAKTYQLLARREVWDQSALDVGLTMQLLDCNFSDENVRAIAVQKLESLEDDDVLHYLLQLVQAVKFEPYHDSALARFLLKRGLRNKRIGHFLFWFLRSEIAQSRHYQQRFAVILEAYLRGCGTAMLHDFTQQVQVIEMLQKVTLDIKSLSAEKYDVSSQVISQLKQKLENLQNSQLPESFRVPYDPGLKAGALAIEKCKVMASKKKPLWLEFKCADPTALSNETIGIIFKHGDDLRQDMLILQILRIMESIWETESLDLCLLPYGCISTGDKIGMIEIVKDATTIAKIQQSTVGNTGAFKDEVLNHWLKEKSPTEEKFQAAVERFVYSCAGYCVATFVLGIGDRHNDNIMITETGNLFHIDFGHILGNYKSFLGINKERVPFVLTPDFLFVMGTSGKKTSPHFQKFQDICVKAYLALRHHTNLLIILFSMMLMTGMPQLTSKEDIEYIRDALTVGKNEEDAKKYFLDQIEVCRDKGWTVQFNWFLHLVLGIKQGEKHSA
How it was run: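 Compound at 10 μmol/L preincubated 10 min with PI3Kγ and PIP2 substrate, then reacted with ATP for 30 minutes at room temperature; the compound, substrate and ATP figures as printed (40 μmol/L each) are solution concentrations. HTRF 665/620 nm ratio read after 18 hours. Inhibition ratio calculated against no-compound (100%) and no-enzyme (0%) controls.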

`COc1ccc(N2CCc3nc(NC(=O)Nc4ccccc4C(=O)NC(C)C)sc3C2)cn1` [Compound I-50] showed an IC50 at 15 min ([1]; human, microsomes) of at least 10 µM.
For `COc1cncc(C2CCc3nc(NC(=O)Nc4ccccc4C(=O)NC(C)C)sc3C2)c1` (centres unmarked) [Compound I-81], the IC50 at 15 min ([1]; human, microsomes) was over 20 µM and the MBI [2] was “(−) (When 3 μmol/L or less, the compound is shown as (−))”.
For `COc1cc(N2CCc3nc(NC(=O)Nc4cn(C)nc4C(=O)NC(C)C)sc3C2)nc(OC)n1` [Compound I-106], the IC50 at 15 min ([1]; human, microsomes) was at least 10 µM and the “hLMS_ox(at 0.5 μM) %” value [3] was 83.9%.
In the case of `CC(=O)c1cccc(-c2ccc3nc(NC(=O)Nc4ccccc4OCCC(C)C)sc3n2)c1` [Compound I-219], the IC50 at 15 min ([1]; human, microsomes) is reported as at least 10 µM and the inhibition at 10 µM [4] is reported as at least 95%.
With `CC(C)NC(=O)c1ccccc1NC(=O)Nc1nc2c(s1)CN(c1ccc(C(F)(F)F)cc1)CC2` [Compound I-208] the IC50 at 15 min ([1]; human, microsomes) was over 20 µM.
`COc1cc(N2CCc3nc(NC(=O)Nc4ccccc4C(=O)C(C)C)sc3C2)nc(OC)n1` [Compound I-64] gave an IC50 at 15 min ([1]; human, microsomes) of at least 10 µM.
For `COc1cc(N2CCc3nc(NC(=O)Nc4ccccc4C(=O)O)sc3C2)nc(OC)n1.Cl.Cl` [Compound I-5], the IC50 at 15 min ([1]; pooled human liver microsomes, one value for five species (CYP1A2, 2C9, 2C19, 2D6, 3A4), pooled human liver microsome 0.2 mg protein/mL, 15 minutes, 37° C., test drug 1-20 μmol/L, read-out: 5CYPs_IC50) was at least 10 µM, the MBI [2] was “(−) (When 3 μmol/L or less, the compound is shown as (−))” and the inhibition at 10 µM [4] was 85%.
For `CC(C)NC(=O)c1ccccc1NC(=O)Nc1nc2c(s1)CN(c1cncc(S(=O)(=O)N(C)C)c1)CC2` [Compound I-108], the IC50 at 15 min ([1]; human, microsomes) was over 20 µM and the MBI [2] was “(−) (When 3 μmol/L or less, the compound is shown as (−))”.

Reference: patent publication US20120071475A1, “UREA DERIVATIVES HAVING PI3K-INHIBITING ACTIVITY” (SHIONOGI & CO., LTD., priority 2009, published 2012)
